The source of these data is US9657018B2, “Antagonists acting at multiple prostaglandin receptors for the treatment of inflammation” (Allergan, Inc., priority 2014, dated 2017).

Holding throughout (format): cell-based
Test [1] addresses T1, human prostanoid EP3 receptor (Homo sapiens, UniProt P43115).
T1 construct: expressed in transfected cells
T1 sequence (P43115 1-390): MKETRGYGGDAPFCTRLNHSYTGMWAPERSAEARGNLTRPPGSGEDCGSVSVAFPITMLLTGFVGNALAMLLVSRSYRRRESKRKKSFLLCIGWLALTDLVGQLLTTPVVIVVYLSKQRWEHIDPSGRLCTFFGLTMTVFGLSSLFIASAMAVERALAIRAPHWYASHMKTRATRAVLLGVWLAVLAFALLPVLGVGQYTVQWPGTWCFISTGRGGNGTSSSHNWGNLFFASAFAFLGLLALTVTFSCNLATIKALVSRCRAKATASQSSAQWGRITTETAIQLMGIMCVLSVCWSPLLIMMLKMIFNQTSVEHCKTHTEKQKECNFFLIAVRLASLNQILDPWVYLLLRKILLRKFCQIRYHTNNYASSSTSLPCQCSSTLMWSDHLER
In words: FLIPR Ca2+ signaling antagonist assay, EP3 receptor stable cell line. Particulars: human recombinant EP3 + chimeric Gqi in HEK-293 EBNA cells; standard agonist PGE2; NA = no antagonism or Kb>=10,000 nM. As for the experimental part:
(§1) The above compounds were tested for PG antagonist activity as follows using human recombinant prostanoid receptor (DP1, EP1-4, FP, IP and TP) stable cell lines:
(§2) In order to measure the response of Gs and Gi coupled prostanoid receptors as a Ca^2+ signal, chimeric G protein cDNAs were used. Stable cell lines over-expressing human prostanoid DP1, EP1-4, FP, IP, and TP receptors were established as follows:
(§3) Briefly, human prostanoid DP1, EP2, and EP4 receptor cDNAs were co-transfected with chimeric Gqs cDNA containing a haemagglutanin (HA) epitope; human prostanoid EP3 receptors were co-transfected with chimeric Gqi-HA; human EP1, FP, IP, and TP receptor cDNAs were expressed with no exogenous G-proteins. Gqs and Gqi chimeric cDNAs (Molecular Devices, Sunnyvale, Calif., U.S.A.), as well as cDNAs of prostanoid receptors, were cloned into a pCEP4 vector with a hygromycin B selection marker. Transfection into HEK-293 EBNA (Epstein-Barr virus nuclear antigen) cells was achieved by the FuGENE 6 transfection Reagent (Roche Applied Science, Indianapolis, Ind., USA). Stable transfectants were selected according to hygromycin resistance. Because Gqs and Gqi contained an HA epitope, G-protein expression was detected by Western blotting analysis using anti-mouse HA monoclonal antibody and horseradish peroxidase (HRP)-conjugated secondary antibody, while functional expression of prostanoid receptors was detected by FLIPR screening (Matias et al., 2004). These stable cell lines were validated using previously published antagonists at 10 μM against serial dilutions of standard agonists by FLIPR functional assays for Ca^2+ Signaling (as described below).
(§4) Ca^2+ signaling studies were performed using a FLIPR TETRA system (Molecular Devices, Sunnyvale, Calif., USA) in the 384-format. This is a high-throughput instrument for cell-based assays to monitor Ca^2+ signaling associated with GPCRs and ion channels. Cells were seeded at a density of 5×10^4 cells/well in BioCoat poly-D-lysine coated, black wall, clear bottom 384-well plates (BD Biosciences, Franklin lakes, NJ, USA) and allowed to attach overnight in an incubator at 37° C. The cells were then washed twice with HBSS-HEPES buffer (Hanks' balanced salt solution without bicarbonate and phenol red, 20 mM HEPES, pH 7.4) using an ELx405 Select CW Microplate Washer (BioTek, Winooski, Vt., USA). After 60 min of dye-loading in the dark using the Ca^2+-sensitive dye Fluo-4AM (Invitrogen, Carlsbad, Calif., USA), at a final concentration of 2×10^−6M, the plates were washed 4 times with HBSS-HEPES buffer to remove excess dye and leaving 50 μl of buffer in each well. The plates were then placed in the FLIPR TETRA instrument and allowed to equilibrate at 37° C. AGN-211377 was added in a 25 μl volume to each well to give final concentrations of 0.1 μl. M, 0.4M, 1 μM, 3 μl. M, 10 μl. M, and 30 μl. M; or 0.067 μM, 0.4M, 0.67 μM, and 1 μM for cells over-expressing TP receptors. After 4.5 minutes, a 7-point serial dilution of the standard agonist for the corresponding receptor, in a 25 μl volume was injected at the final concentrations from 10^−11M to 10^−5M in 10-fold serial dilution increments for cells expressing human recombinant DP1, EP1, EP2, EP3, EP4, FP, and IP receptors. The dose range for the standard agonist for human recombinant TP receptors was from 10^−12M to 10^−6M. HBSS-HEPES buffer was used as the negative control for the standard agonists. Cells were excited with LED (light emitting diode) excitation at 470-495 nm and emission was measured through an emission filter at 515-575 nm. Assay plates were read for 3.5 minutes using the FLIPR^TETRA. The peak increase in fluorescence intensity was recorded for each well. On each plate, negative controls, dose response of positive controls, and co-treatments of antagonist-agonist for each dose were in triplicates. Standard agonists were as follows: DP=BW 245C, EP1-EP4=PGE2, FP=17-phenyl-PGF2a, IP=Cicaprost, and TP=U-46619. […]

Test [2] deals with T2, human prostanoid DP1 receptor (Homo sapiens, UniProt Q13258).
T2 construct: expressed in transfected cells
T2 sequence (Q13258 1-359): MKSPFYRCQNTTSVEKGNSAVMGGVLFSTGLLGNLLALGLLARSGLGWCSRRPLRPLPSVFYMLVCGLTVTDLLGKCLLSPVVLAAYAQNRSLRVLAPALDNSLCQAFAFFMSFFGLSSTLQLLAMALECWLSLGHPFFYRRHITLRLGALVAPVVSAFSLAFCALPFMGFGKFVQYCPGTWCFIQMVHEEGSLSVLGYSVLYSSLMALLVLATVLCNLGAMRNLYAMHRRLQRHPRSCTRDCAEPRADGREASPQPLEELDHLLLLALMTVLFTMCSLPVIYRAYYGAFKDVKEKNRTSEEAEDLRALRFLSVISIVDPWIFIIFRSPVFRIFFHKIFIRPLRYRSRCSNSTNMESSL
Kind of test: FLIPR Ca2+ signaling antagonist assay, DP1 receptor stable cell line. Particulars: human recombinant DP1 + chimeric Gqs in HEK-293 EBNA cells; standard agonist BW 245C; NA = no antagonism or Kb>=10,000 nM. The procedure: as §1, §2, §3, §4

The target in test [3] is T3, human prostanoid IP receptor (Homo sapiens, UniProt P43119).
T3 construct: expressed in transfected cells
T3 sequence (P43119 whole entry): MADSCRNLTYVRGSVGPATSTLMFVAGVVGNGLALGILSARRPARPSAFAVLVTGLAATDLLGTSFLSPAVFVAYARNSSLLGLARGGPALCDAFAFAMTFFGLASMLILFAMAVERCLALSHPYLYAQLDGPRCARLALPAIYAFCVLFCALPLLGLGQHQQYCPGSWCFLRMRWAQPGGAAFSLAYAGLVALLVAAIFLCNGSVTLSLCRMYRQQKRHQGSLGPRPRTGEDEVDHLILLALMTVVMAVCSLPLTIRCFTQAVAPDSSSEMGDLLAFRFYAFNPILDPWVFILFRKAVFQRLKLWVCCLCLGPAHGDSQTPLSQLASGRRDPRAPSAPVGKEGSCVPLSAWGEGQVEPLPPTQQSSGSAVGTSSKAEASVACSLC
In words: FLIPR Ca2+ signaling antagonist assay, IP receptor stable cell line. Particulars: human recombinant IP in HEK-293 EBNA cells; standard agonist Cicaprost; NA = no antagonism or Kb>=10,000 nM. The procedure:
as §1, §2, §3, §4

For test [4], the target named is T4, human prostanoid EP4 receptor (Homo sapiens, UniProt P35408).
T4 construct: expressed in transfected cells
T4 sequence (P35408 whole entry): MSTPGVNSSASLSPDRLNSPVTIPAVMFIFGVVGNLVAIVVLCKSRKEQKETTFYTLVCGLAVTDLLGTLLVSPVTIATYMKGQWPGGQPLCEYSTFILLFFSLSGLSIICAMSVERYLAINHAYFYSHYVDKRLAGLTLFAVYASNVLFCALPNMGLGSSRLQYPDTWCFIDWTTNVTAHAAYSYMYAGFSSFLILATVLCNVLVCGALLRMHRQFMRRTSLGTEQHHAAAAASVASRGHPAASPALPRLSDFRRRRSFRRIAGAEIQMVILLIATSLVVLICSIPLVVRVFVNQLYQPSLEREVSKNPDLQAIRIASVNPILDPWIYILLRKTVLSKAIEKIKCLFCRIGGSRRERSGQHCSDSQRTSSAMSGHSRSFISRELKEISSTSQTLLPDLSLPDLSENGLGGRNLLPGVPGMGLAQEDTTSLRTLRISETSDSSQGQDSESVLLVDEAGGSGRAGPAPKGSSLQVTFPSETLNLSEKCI
Kind of test: FLIPR Ca2+ signaling antagonist assay, EP4 receptor stable cell line. Particulars: human recombinant EP4 + chimeric Gqs in HEK-293 EBNA cells; standard agonist PGE2; NA = no antagonism or Kb>=10,000 nM. As for the experimental part:
as §1, §2, §3, §4

The structures appear in SMILES notation.

`CC(C)Cn1ncc2cc(OC(F)(F)F)cc(Cn3cnc4cc(C(=O)O)ccc43)c21` [Compound 56, 1-(1-Isobutyl-5-trifluoromethoxy-1H-indazol-7-ylmethyl)-1H-benzoimidazole-5-carboxylic acid]: the antagonist dissociation constant (Kb) in test [1] is more than 10 µM; in test [2], 5.2 µM; in test [3], 9 µM; in test [4], 0.006 µM.

Consider `CC(C)Cn1ncc2cc(Cl)cc(Cc3ncc4cc(C(=O)O)ccn34)c21` [Compound 61, 3-[(5-Chloro-1-isobutyl-indazol-7-yl)methyl]imidazo[1,5-a]pyridine-7-carboxylic acid], for which the Kb in test [1] was more than 10 µM; in test [2] it was 4.7 µM; in test [3], more than 10 µM; in test [4], 0.2 µM.

As to `CC(C)Cn1ncc2cc(Cl)cc(Cn3nc(N)c4cc(C(=O)O)ccc43)c21` [Compound 68, 3-Amino-1-[(5-chloro-1-isobutyl-indazol-7-yl)methyl]indazole-5-carboxylic acid], the antagonist dissociation constant (Kb) is more than 10 µM in test [1], 3.7 µM in test [2], 9.3 µM in test [3] and 0.06 µM in test [4].

`CNc1nn(Cc2cc(Cl)cc3cnn(CC(C)C)c23)c2ccc(C(=O)O)cc12` [Compound 70, 1-[(5-Chloro-1-isobutyl-indazol-7-yl)methyl]-3-(methylamino)indazole-5-carboxylic acid]: the Kb in test [1] was 8.1 µM; in test [2] it was 1 µM; in test [3], 0.9 µM; in test [4] it was 0.001 µM.

As usually defined, the Kb is the equilibrium dissociation constant of an antagonist, usually derived from a functional assay.
